Laboratory results: patent publication US7371728B2, “Prostate-specific antigen probes for optical imaging” (Kaohsiung Medical University, priority 2005, dated 2008)
“Also recorded” adds a separate entry of the source. Square brackets hold non-standard residues; d marks the D form. Ends that are not written are not given here. * marks the point of attachment. FITC = O=C1OC2(c3ccc(O)cc3Oc3cc(O)ccc32)c2ccc(NC(=S)*)cc21; Hyp = O=C(O)[C@@H]1C[C@@H](O)CN1; Chg = N[C@H](C(=O)O)C1CCCCC1

Assays:
[1] = target: T1, prostate-specific antigen (Homo sapiens, UniProt P07288); test: HPLC study of peptide specificity for prostate-specific antigen; format: biochemical; settings: in the presence of prostate-specific antigen enzyme; fluorescence detection 480/525 nm
From the text: The Study of Peptide Specificity for Prostate-Specific Antigen: • The high performance liquid chromatography is used for application in study of peptide separation, peptide purity analysis and specific enzyme-cutting specificity for a peptide substrate. […] The goal of the study of the present invention is to develop prostate peptide substrates and enzymes by in-vitro experiments.
The chromatographic diagrams of specificity analysis of the prostate peptide substrates and prostate-specific antigen are shown in FIGS. 3 and 4. The conditions of the HPLC are as follows: a reverse C18 chromatography column, mobile phase is methyl alcohol: 1% triethylamine=60:40(v/v), flow rate is 0.5 ml/min. […] There are two peaks in the spectrums if HPLC runs in the presence of the prostate-specific antigen with the retention times being 2.7 and 3.2 min as shown in FIG. 3.

[2] = target: T1, prostate-specific antigen; test: Quenching and non-quenching study: fluorescence intensity over time after reaction with prostate-specific antigen; format: biochemical; settings: 35 minutes
From the text: FIG. 5. is a fluorescence absorption verse time diagram showing fluorescence intensity of a control peptide probe (×) for a prostate peptide substrate probe Cy-prostate-PGC (▪), control peptide probe (Δ) and a prostate peptide probe in the presence of a prostate-specific antigen (♦) according to the present invention;
At different time, a prostate peptide substrate and prostate control peptide are reacted with an enzyme of prostate-specific antigen to record its fluorescence spectrum and the results are shown in FIG. 5. […] When the reaction time for the reaction between prostate peptide substrate and the prostate-specific antigen reaches 35 minutes and the signal intensity becomes 5 times as that of the original fluorescence intensity.

T1 sequence (P07288 25-261): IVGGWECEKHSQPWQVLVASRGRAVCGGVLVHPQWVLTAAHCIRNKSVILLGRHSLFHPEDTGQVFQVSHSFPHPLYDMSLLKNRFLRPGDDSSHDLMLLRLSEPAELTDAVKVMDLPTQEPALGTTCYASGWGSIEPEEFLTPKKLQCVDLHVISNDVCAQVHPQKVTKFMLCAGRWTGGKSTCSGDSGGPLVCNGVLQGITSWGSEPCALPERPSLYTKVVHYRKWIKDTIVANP

fluorescence signal intensity relative to the original fluorescence intensity [2]: 5 times
Substance: G[Hyp]AS[Chg]QSLMK(FITC)C-NH2 [prostate peptide substrate]
cutting of the peptide by prostate-specific antigen (HPLC) [1]: can cut Gln-Ser residue; also recorded: one major cut
